According to patent US6242448A, “Trisubstituted-oxazole derivatives as serotonin ligands” (American Home Products Corporation, priority 1999, dated 2001):

Each compound was assayed against T1, human 5HT1A receptor (Homo sapiens, UniProt P08908) (assay: 5-HT1A Receptor Binding Assay (displacement of [3H]8-OH-DPAT in CHO cells stably transfected with human 5HT1A receptor)). Conditions: displacement of 8-OH-DPAT, 1.5 nM ligand, 30 minute incubation at room temperature.
T1 construct: expressed in transfected cells; host or cells: CHO cells (stably transfected)
T1 sequence (P08908 1-422): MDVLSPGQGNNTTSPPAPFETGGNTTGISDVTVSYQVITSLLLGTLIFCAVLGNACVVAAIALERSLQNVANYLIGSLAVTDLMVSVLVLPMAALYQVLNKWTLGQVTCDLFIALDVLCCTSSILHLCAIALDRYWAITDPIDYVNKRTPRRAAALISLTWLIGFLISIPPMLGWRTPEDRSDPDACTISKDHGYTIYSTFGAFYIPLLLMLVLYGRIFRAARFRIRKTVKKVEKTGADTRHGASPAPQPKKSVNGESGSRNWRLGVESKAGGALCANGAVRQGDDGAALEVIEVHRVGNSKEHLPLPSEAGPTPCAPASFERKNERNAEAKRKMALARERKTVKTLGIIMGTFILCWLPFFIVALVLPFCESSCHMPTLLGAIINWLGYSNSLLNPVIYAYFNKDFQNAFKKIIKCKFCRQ
Description: High affinity for the serotonin 5--HT1A receptor was established by testing the claimed compound's ability to displace [^3 ]8-OH-DPAT binding in CHO cells stably transfected with human 5HT1A receptor. Stably transfected CHO cells are grown in DMEM containing 10% heat inactivated FBS and non-essential amino acids. Cells are scraped off the plate, transferred to centrifuge tubes, and washed twice by centrifugation (2000 rpm for 10 min., 4° C.) in buffer (50 mM Tris pH 7.5). The resulting pellets are aliquoted and placed at -80° C. On the day of assay, the cells are thawed on ice and resuspended in buffer. The binding assay is performed in a 96 well microtiter plate in a total volume of 250 μL. Non-specific binding is determined in the presence of […] 5HT, final ligand concentration is 1.5 nM. Following a 30 minute incubation at room temperature, the reaction is terminated by the addition of ice cold buffer and rapid filtration through a GF/B filter presoaked for 30 minutes in 0.5% PEI. Compounds are initially tested in a single point assay to determine percent inhibition at 1, 0.1, and 0.01 mM, and Ki values are determined for the active compounds.
`c1ccc(Cc2nc(C3CCCCC3)oc2CN2CCN(c3cccc4c3OCCO4)CC2)cc1` [Example 9, 1-(4-Benzyl-2-cyclohexyl-oxazol-5-ylmethyl)-4(2,3-dihydro-benzo[1,4]dioxin-5-yl)-piperazine] showed a Ki of 4.72 nM.
Compound `c1ccc(Cc2nc(C3CCCCC3)oc2CN2CCN(c3cccc4[nH]ccc34)CC2)cc1` [Example 10, 4-[4-(4-Benzyl-2-cyclohexyl-oxazol-5-ylmethyl)-piperazin-1-yl]-1H-indole] has a Ki of 7.1 nM.
Compound `COc1ccccc1N1CCN(Cc2oc(C3CCCCC3)nc2Cc2ccccc2)CC1` [Example 11, 1-(4Benzyl-2-cyclohexyl-oxazol-5-ylmethyl)-4-(2-methoxyphenyl)-piperazine] has a Ki of 0.88 nM.
